Laboratory results as given in patent publication US8835646B2, “Organic compounds” (Novartis AG, priority 2005, dated 2014).

Experiments:
aldosterone synthase = biological target: T1, aldosterone synthase (Homo sapiens, UniProt P19099); test: cellular aldosterone production in NCI-H295R cells stimulated with Ang II (RIA/SPA); assay type: cell-based; conditions: human adrenocortical carcinoma NCI-H295R cells, 1 μM Ang II, 24 hr
T1 construct: host or cells: NCI-H295R
T1 sequence (P19099 25-503): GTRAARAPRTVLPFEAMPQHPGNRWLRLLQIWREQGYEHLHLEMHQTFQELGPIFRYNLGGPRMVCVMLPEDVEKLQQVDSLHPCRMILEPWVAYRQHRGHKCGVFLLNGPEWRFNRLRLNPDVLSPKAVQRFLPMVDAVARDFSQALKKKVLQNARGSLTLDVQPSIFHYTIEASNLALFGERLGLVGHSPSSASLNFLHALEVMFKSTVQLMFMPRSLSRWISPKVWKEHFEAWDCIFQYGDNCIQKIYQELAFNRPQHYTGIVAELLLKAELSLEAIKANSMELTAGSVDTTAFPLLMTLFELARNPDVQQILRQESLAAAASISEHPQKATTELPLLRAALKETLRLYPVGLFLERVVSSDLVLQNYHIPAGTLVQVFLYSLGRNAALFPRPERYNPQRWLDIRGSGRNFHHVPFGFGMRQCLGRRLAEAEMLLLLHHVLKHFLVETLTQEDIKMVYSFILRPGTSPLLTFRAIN
Description: (§1) Human adrenocortical carcinoma NCl-H295R cell line is obtained from American Type Culture Collection (Manassas, Va.). Insulin/transferrin/selenium (ITS)-A supplement (100×), DMEM/F-12, antibiotic/antimycotic (100×), and fetal calf serum (FCS) are purchased from Gibco (Grand Island, N.Y.). Anti-mouse PVT scintillation proximity assay (SPA) beads and NBS 96-well plates are obtained from Amersham (Piscataway, N.J.) and Corning (Acton, Mass.), respectively. Solid black 96-well flat bottom plates are purchased from Costar (Corning, N.Y.). Aldosterone and angiotensin (Ang II) are purchased from Sigma (St. Louis, Mo.). D-[1,2,6,7-^3H(N)]aldosterone was acquired from PerkinElmer (Boston, Mass.). Nu-serum was a product of BD Biosciences (Franklin Lakes, N.J.). The NADPH regenerating system, dibenzylfluorescein (DBF), and human aromatase Supersomes® are obtained from Gentest (Woburn, Mass.).
For in vitro measurement of aldosterone activity, human adrenocortical carcinoma NCI-H295R cells are seeded in NBS 96-well plates at a density of 25,000 cells/well in 100 μl of a growth medium containing DMEM/F12 supplemented with 10% FCS, 2.5% Nu-serum, 1 μg ITS/ml, and 1× antibiotic/antimycotic. The medium is changed after culturing for 3 days at 37° C. under an atmosphere of 5% CO2/95% air. On the following day, cells are rinsed with 100 μl of DMEM/F12 and incubated with 100 μl of treatment medium containing 1 μM Ang II and a compound at different concentrations in quadruplicate wells at 37° C. for 24 hr. At the end of incubation, 50 μl of medium is withdrawn from each well for measurement of aldosterone production by an RIA using mouse anti-aldosterone monoclonal antibodies.
Measurement of aldosterone activity can also be performed using a 96-well plate format. Each test sample is incubated with 0.02 μCi of D-[1,2,6,7-^3H(N)]aldosterone and 0.3 μg of anti-aldosterone antibody in phosphate-buffered saline (PBS) containing 0.1% Triton X-100, 0.1% bovine serum albumin, and 12% glycerol in a total volume of 200 μl at room temperature for 1 hr. Anti-mouse PVT SPA beads (50 μl) are then added to each well and incubated overnight at room temperature prior to counting in a Microbeta plate counter. The amount of aldosterone in each sample is calculated by comparing with a standard curve generated using known quantities of the hormone.
(§2) Full concentration-response curves of the test compound are performed at least 3 times. The IC50 values are derived using a non-linear least squares curve-fitting program from Microsoft XLfit.

human aromatase = biological target: T2, human aromatase (Homo sapiens, UniProt P11511); test: human aromatase assay (Supersomes, DBF substrate, fluorescence); assay type: biochemical; conditions: 10000 nM
T2 construct: purchased Gentest (Woburn, Mass.)
T2 sequence (P11511 1-503): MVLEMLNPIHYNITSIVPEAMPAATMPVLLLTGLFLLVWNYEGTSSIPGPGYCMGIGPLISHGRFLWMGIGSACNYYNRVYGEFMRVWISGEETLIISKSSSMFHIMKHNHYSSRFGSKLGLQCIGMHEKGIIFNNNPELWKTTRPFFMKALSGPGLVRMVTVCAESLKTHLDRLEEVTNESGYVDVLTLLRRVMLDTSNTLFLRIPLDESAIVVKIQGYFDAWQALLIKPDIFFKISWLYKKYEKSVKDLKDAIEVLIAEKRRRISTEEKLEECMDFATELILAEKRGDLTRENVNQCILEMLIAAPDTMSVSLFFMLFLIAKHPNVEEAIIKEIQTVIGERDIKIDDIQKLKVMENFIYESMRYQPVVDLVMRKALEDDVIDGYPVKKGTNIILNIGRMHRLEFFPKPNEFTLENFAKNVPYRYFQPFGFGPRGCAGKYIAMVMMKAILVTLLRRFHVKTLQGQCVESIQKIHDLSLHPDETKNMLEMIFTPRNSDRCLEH
Description: as §1
To measure aromatase activity, the human aromatase assay is performed in 96-well flat bottom plates according to a published protocol (Stresser et al, 2000) with minor modifications. Briefly, 10 μl of an NADPH regenerating system containing 2.6 mM NADP^+, 6.6 mM glucose 6-phosphate, 6.6 mM MgCl2, and 0.8 U/ml glucose-6-phosphate dehydrogenase in 50 mM potassium phosphate, pH 7.4, is pre-incubated with the test compound at a desired concentration at 30° C. for 10 min in a total volume of 100 μl. Afterwards, 4 pmol of human aromatase, 20 μg of control microsomal protein, and 4 μM DBF in 100 μl of 50 mM potassium phosphate, pH 7.4, is added to each well and incubated at 30° C. for 90 min. The reaction is terminated by the addition of 75 μl of 2 N NaOH to each well. After 2 hr, the product, fluorescein, is measured by a fluorimeter using excitation and emission wavelengths of 485 and 538 nm, respectively.
as §2

SMILES	IC50 (aldosterone synthase)	inhibition at 10 µM (human aromatase)
C=CCC1(c2ccc(C#N)cc2Br)CCCCc2cncn21 (stereo not drawn) [4-(5-Allyl-6,7,8,9-tetrahydro-5H-imidazo[1,5-a]azepin-5-yl)-3-bromobenzonitrile]	32 nM	97%
COc1cc(C2CCc3cncn32)ccc1C#N (stereo not drawn) [4-(6,7-Dihydro-5H-pyrrolo[1,2-c]imidazol-5-yl)-2-methoxybenzonitrile]	5 nM	97%
Cc1cc(C2CCc3cncn32)ccc1C#N (stereo not drawn) [4-(6,7-Dihydro-5H-pyrrolo[1,2-c]imidazol-5-yl)-2-methylbenzonitrile]	3 nM	95%
C=Cc1cc(C2CCc3cncn32)ccc1C#N (stereo not drawn) [4-(6,7-Dihydro-5H-pyrrolo[1,2-c]imidazol-5-yl)-2-vinylbenzonitrile]	8 nM	100%
COc1cc(C#N)ccc1C1CCc2cncn21 (stereo not drawn) [4-(6,7-Dihydro-5H-pyrrolo[1,2-c]imidazol-5-yl)-3-methoxybenzonitrile]	18 nM	100%
C=Cc1cc(C#N)ccc1C1CCc2cncn21 (stereo not drawn) [4-(6,7-Dihydro-5H-pyrrolo[1,2-c]imidazol-5-yl)-3-vinylbenzonitrile]	31 nM	95%
CC1CCCC(c2ccc(C#N)cc2-c2ccc(F)cc2)n2cncc21 (stereo not drawn) [4′-Fluoro-6-(9-methyl-6,7,8,9-tetrahydro-5H-imidazo[1,5-a]azepin-5-yl)biphenyl-3-carbonitrile]	2 nM	91%
Fc1ccc(C2CCCCc3cncn32)c(Br)c1 (stereo not drawn) [5-(2-Bromo-4-fluorophenyl)-6,7,8,9-tetrahydro-5H-imidazo[1,5-a]azepine]	65 nM	92%
COC(=O)C1(c2ccc(C#N)cc2Cl)CCc2cncn21 (stereo not drawn) [5-(2-Chloro-4-cyanophenyl)-6,7-dihydro-5H-pyrrolo[1,2-c]imidazole-5-carboxylic acid methyl ester]	45 nM	96%
COc1ccc(C2CCc3cncn32)cc1F (stereo not drawn) [5-(3-fluoro-4-methoxyphenyl)-6,7-dihydro-5H-pyrrolo[1,2-c]imidazole]	159 nM	100%
COC(=O)C1(c2cc(OC)c(C#N)cc2OC)CCc2cncn21 (stereo not drawn) [5-(4-Cyano-2,5-dimethoxyphenyl)-6,7-dihydro-5H-pyrrolo[1,2-c]imidazole-5-carboxylic acid methyl ester]	113 nM	98%
COc1cc(C#N)ccc1C1(C(=O)OCCOC(C)C)CCc2cncn21 (stereo not drawn) [5-(4-Cyano-2-methoxyphenyl)-6,7-dihydro-5H-pyrrolo[1,2-c]imidazole-5-carboxylic acid 2-isopropoxyethyl ester]	5 nM	96%
COc1cc(C#N)ccc1C1(C(=O)N(C)Cc2ccc(F)cc2)CCc2cncn21 (stereo not drawn) [5-(4-Cyano-2-methoxyphenyl)-6,7-dihydro-5H-pyrrolo[1,2-c]imidazole-5-carboxylic acid (4-fluorobenzyl)methylamide]	57 nM	85%
CCCCOC(=O)C1(c2ccc(C#N)cc2OC)CCc2cncn21 (stereo not drawn) [5-(4-Cyano-2-methoxyphenyl)-6,7-dihydro-5H-pyrrolo[1,2-c]imidazole-5-carboxylic acid butyl ester]	6 nM	100%
COC(=O)C1(c2ccc(C#N)cc2OC(F)(F)F)CCc2cncn21 (stereo not drawn) [5-(4-Cyano-2-trifluoromethoxyphenyl)-6,7-dihydro-5H-pyrrolo[1,2-c]imidazole-5-carboxylic acid methyl ester]	2 nM	99%
Fc1ccc(C2CCCc3cncn32)c(-c2ccsc2)c1 (stereo not drawn) [5-(4-Fluoro-2-thiophen-3-yl-phenyl)-5,6,7,8-tetrahydroimidazo[1,5-a]pyridine]	93 nM	88%
Fc1ccc(C2CCCc3cncn32)c(-c2ccccc2)c1 (stereo not drawn) [5-(5-Fluorobiphenyl-2-yl)-5,6,7,8-tetrahydroimidazo[1,5-a]pyridine]	57 nM	98%
N#Cc1ccc(C2CC3(CC3)c3cncn32)c(F)c1 (stereo not drawn) [5′-[2-fluoro-4-cyano-phenyl]-5′,6′-dihydrospiro[cyclopropane-1,7′-pyrrolo[1,2-c]imidazole]]	11 nM	99%
